Values of other authors as cited in patent US10143689B2, “SN-38 loaded iron crosslinked micelle and methods thereof” (Intezyne Technologies, Inc., priority 2017, dated 2018).

Assays:
various cancer cells = conditions: in vitro

solubility in aqueous solutions: exceedingly insoluble
SMILES: CCc1c2c(nc3ccc(O)cc13)-c1cc3c(c(=O)n1C2)COC(=O)[C@]3(O)CC [SN-38, 7-ethyl-10-hydroxy-CPT]
cytotoxic activity, potency relative to CPT-11 (various cancer cells): up to 1,000 fold
